Converted amounts (≈) assume the structure as drawn. “And” between values parts separate entries of the source, which are not always exact repeats. Equal values may be shown once.

Usually MIC stands for the least concentration at which growth counts as inhibited. Low readings indicate a more susceptible organism, high ones a less susceptible organism.

Test systems include Escherichia coli BL21; Pseudomonas syringae; Candida krusei ATCC 6258; Candida glabrata; Escherichia coli ML-35; Candida albicans; Klebsiella pneumoniae; Pseudomonas aeruginosa; Acinetobacter baumannii.
Assay in all cases: ≥ marks a high value that may be exact or a test limit, other limits are often not marked, values filed in µg/mL are converted to µM
Assay [1] concerns Pseudomonas aeruginosa PAO1.
In assay [2] the test system is Streptococcus pyogenes GAS M1T1.
Assay [3] has as its system Xanthomonas axonopodis pv. phaseoli ATCC 9563.
Assay [4] deals with Acinetobacter baumannii KCTC 2508.
The subject of assay [5] is Pseudomonas aeruginosa ATCC 27853.
Assay [6] deals with Klebsiella pneumoniae KCTC 2208.
Assay [7] concerns Candida tropicalis ATCC 750.
In assay [8] the test system is Pseudomonas aeruginosa ATCC 15422.
Assay [9] concerns Klebsiella pneumoniae ATCC 700603.
Assay [10] relates to Candida albicans ATCC 14053.
In assay [11] the test system is Staphylococcus aureus ATCC 25923.
In assay [12] the test system is Bacillus subtilis CCT 2576.
For assay [13], the system named is Bacillus subtilis ATCC 23857.
The subject of assay [14] is Escherichia coli ATCC 25922.
The test system of assay [15] is Staphylococcus aureus ATCC 6538.
Assay [16] concerns Cronobacter sakazakii ATCC 29544.
Assay [17] has as its system Staphylococcus epidermidis ATCC 12228.
Assay [18] relates to Escherichia coli ATCC 43827.
Assay [19] has as its system Candida glabrata ATCC 2001.
For assay [20], the system named is Staphylococcus aureus ATCC 29213.
Assay [21] deals with Candida albicans ATCC 90028.
Assay [22] concerns Staphylococcus aureus ATCC 43300.
In assay [23] the test system is Klebsiella pneumoniae ATCC BAA-2146.
Assay [24] deals with Cryptococcus neoformans ATCC 208821.
The test system of assay [25] is Acinetobacter baumannii ATCC 19606.
The subject of assay [26] is Bacillus subtilis ATCC 6051.
The test system of assay [27] is Klebsiella pneumoniae ATCC 13883.

Regarding `CC[C@H](C)[C@H](NC(=O)[C@H](CCC(=O)O)NC(=O)[C@H](CC(N)=O)NC(=O)[C@H](CCCCN)NC(=O)[C@H](CC(C)C)NC(=O)[C@H](Cc1ccc(O)cc1)NC(=O)[C@H](CCCCN)NC(=O)[C@H](CCCN=C(N)N)NC(=O)[C@@H](NC(=O)[C@@H](NC(=O)[C@H](CCC(=O)O)NC(=O)[C@H](CCCCN)NC(=O)[C@H](Cc1c[nH]c2ccccc12)NC(=O)[C@H](C)N)[C@@H](C)O)[C@@H](C)CC)C(=O)N[C@@H](CCCCN)C(=O)N[C@@H](CCCCN)C(=O)N[C@@H](CCCCN)C(=O)N[C@@H](Cc1c[nH]c2ccccc12)C(=O)N[C@@H](CCCN=C(N)N)C(=O)N[C@@H](CCCCN)C(=O)N[C@@H](C)C(=O)N[C@H](C(=O)N[C@H](C(=O)N[C@@H](C)C(=O)N[C@@H](Cc1c[nH]c2ccccc12)C(=O)O)[C@@H](C)CC)C(C)C` [AWKETIRKYLKNEIKKKWRKAVIAW], the MIC was determined as 2 µM (≈ 6.38 µg/mL) in the assay with Escherichia coli BL21; 8 µM (≈ 25.5 µg/mL) in [1]; 10 µM (≈ 31.9 µg/mL) in assay [2]; 8 µM (≈ 25.5 µg/mL) against Pseudomonas syringae; 2 µM (≈ 6.38 µg/mL) in assay [3].
For `CC[C@H](C)[C@H](N)C(=O)N[C@@H](C)C(=O)N[C@@H](CCCN=C(N)N)C(=O)N[C@@H](CCCN=C(N)N)C(=O)N[C@@H](C)C(=O)N[C@@H](CC(C)C)C(=O)N[C@@H](CCCCN)C(=O)N[C@@H](CCCCN)C(=O)N[C@@H](C)C(=O)N[C@@H](CCCCN)C(=O)N[C@@H](CCCN=C(N)N)C(=O)N[C@@H](C)C(=O)N[C@@H](C)C(=O)N[C@@H](Cc1cnc[nH]1)C(=O)N[C@@H](CCCCN)C(=O)N[C@H](C(=O)N1CCC[C@H]1C(=O)N[C@@H](C)C(=O)N[C@@H](C)C(=O)N[C@@H](CCCCN)C(=O)N[C@@H](CCCCN)C(=O)N[C@@H](Cc1ccccc1)C(=O)NCC(=O)N[C@@H](CCCN=C(N)N)C(=O)N[C@@H](CCCN=C(N)N)C(N)=O)[C@@H](C)CC` [IARRALKKAKRAAHKIPAAKKFGRR], the MIC in assay [4] came to 8 µM (≈ 22.7 µg/mL); in assay [5] it was 16 µM (≈ 45.5 µg/mL); in [6], 2 µM (≈ 5.69 µg/mL).
The like results for `CC[C@H](C)[C@H](N)C(=O)N[C@@H](C)C(=O)N[C@@H](CCCN=C(N)N)C(=O)N[C@@H](CCCN=C(N)N)C(=O)N[C@@H](C)C(=O)N[C@@H](CC(C)C)C(=O)N[C@@H](CCCCN)C(=O)N[C@@H](CCCCN)C(=O)N[C@@H](C)C(=O)N[C@@H](CCCCN)C(=O)N[C@@H](CCCN=C(N)N)C(=O)N[C@@H](C)C(=O)N[C@@H](C)C(=O)N[C@@H](Cc1cnc[nH]1)C(=O)N[C@@H](CCCCN)C(=O)N[C@H](C(=O)N1CCC[C@H]1C(=O)N[C@@H](C)C(=O)N[C@@H](CS)C(=O)N[C@@H](CCCCN)C(=O)N[C@@H](CCCCN)C(=O)N[C@@H](Cc1ccccc1)C(=O)NCC(=O)N[C@@H](CCCN=C(N)N)C(=O)N[C@@H](CCCN=C(N)N)C(N)=O)[C@@H](C)CC` [IARRALKKAKRAAHKIPACKKFGRR] were, in that order, 16 µM (≈ 46 µg/mL), 2 µM (≈ 5.75 µg/mL) and 8 µM (≈ 23 µg/mL).
Take `CC[C@H](C)[C@H](N)C(=O)N[C@@H](CC(C)C)C(=O)NCC(=O)N[C@H](C(=O)N[C@H](C(=O)N[C@@H](CC(C)C)C(=O)NCC(=O)N[C@@H](CC(C)C)C(=O)N[C@@H](CC(C)C)C(=O)N[C@@H](CCCCN)C(=O)N[C@@H](CO)C(=O)N[C@@H](CC(C)C)C(N)=O)[C@@H](C)CC)[C@@H](C)O` [ILGTILGLLKSL]: the MIC is 4 µM (≈ 4.96 µg/mL) in [7]; at least 32 µM in the assay on Candida krusei ATCC 6258; at least 202 µM in assay [8]; 128 µM (≈ 159 µg/mL) in assay [9]; 16 µM (≈ 19.8 µg/mL) in assay [10]; 8 µM (≈ 9.92 µg/mL) in [11]. The MIC against Candida glabrata was 16 µM (≈ 19.8 µg/mL); in assay [12], 12.1 µM (≈ 15 µg/mL); in assay [13], 4 µM (≈ 4.96 µg/mL); in assay [14], 32 µM (≈ 39.7 µg/mL); in [15] it was 12.1 µM (≈ 15 µg/mL); in assay [16], at least 64 µM. Moreover, the minimal inhibitory concentration (MIC) in assay [17] is 8 µM and > 4 µM; in assay [18] it was at least 32 µM; in assay [19], 16 µM (≈ 19.8 µg/mL); in assay [20], 4 µM (≈ 4.96 µg/mL); with Escherichia coli ML-35, at least 64 µM; in the assay with Candida albicans, 22.6 µM (≈ 28 µg/mL).
For the compound `CC[C@H](C)[C@@H]1NC(=O)CNC(=O)[C@H](CCCN=C(N)N)NC(=O)[C@H](C)NC(=O)[C@@H]2CSSC[C@H](NC1=O)C(=O)N[C@@H](Cc1ccc(O)cc1)C(=O)N[C@@H](CCCN=C(N)N)C(=O)N[C@@H](CCCN=C(N)N)C(=O)N[C@H](C(=O)N[C@@H](CCCN=C(N)N)C(=O)O)CSSC[C@H](NC(=O)[C@H](Cc1c[nH]c3ccccc13)NC(=O)[C@@H](N)CCCCN)C(=O)N[C@@H](Cc1ccccc1)C(=O)N[C@@H](CCCN=C(N)N)C(=O)N[C@@H](C(C)C)C(=O)N2` [KWCFRVCARGICYRRCR], the MIC worked out at 3.68 µM (≈ 7.99 µg/mL) with Klebsiella pneumoniae; 3.68 µM (≈ 7.99 µg/mL) in assay [21]; 0.0574 µM (≈ 0.125 µg/mL) in assay [9]; 0.919 µM (≈ 2 µg/mL) in the assay on Pseudomonas aeruginosa; 1.84 µM (≈ 3.99 µg/mL) in assay [22]; 0.0276 µM (≈ 0.06 µg/mL) in assay [14]. For the same compound, the minimal inhibitory concentration (MIC) in the assay on Acinetobacter baumannii was determined as 0.23 µM (≈ 0.499 µg/mL); in assay [23], 0.23 µM (≈ 0.499 µg/mL); in [24], 0.23 µM (≈ 0.499 µg/mL); in [25], 0.0574 µM (≈ 0.125 µg/mL); in [5], 0.459 µM (≈ 0.998 µg/mL); in [26], 0.115 µM (≈ 0.25 µg/mL). The same compound showed a minimum inhibitory concentration (MIC) in [27] of 0.0574 µM (≈ 0.125 µg/mL).
With `CC(C)[C@@H]1NC(=O)[C@H](CCCN=C(N)N)NC(=O)[C@H](Cc2ccccc2)NC(=O)[C@@H](NC(=O)[C@H](Cc2c[nH]c3ccccc23)NC(=O)[C@@H](N)CCCCN)CSSC[C@@H](C(=O)N[C@@H](CCCN=C(N)N)C(=O)O)NC(=O)[C@H](CCCN=C(N)N)NC(=O)[C@H](CCCN=C(N)N)NC(=O)[C@H](Cc2ccc(O)cc2)NC(=O)[C@@H]2CSSC[C@H](NC1=O)C(=O)N[C@@H](Cc1ccc(O)cc1)C(=O)N[C@@H](CCCN=C(N)N)C(=O)NCC(=O)N[C@@H](C)C(=O)N2` [KWCFRVCYRGACYRRCR], the MIC in the assay on Klebsiella pneumoniae came to 3.59 µM (≈ 7.99 µg/mL); in [21], 0.898 µM (≈ 2 µg/mL); in assay [9], 0.225 µM (≈ 0.499 µg/mL); in the assay with Pseudomonas aeruginosa it was 0.449 µM (≈ 0.998 µg/mL); in [22] it was 0.898 µM (≈ 2 µg/mL); in assay [14], 0.0561 µM (≈ 0.125 µg/mL). In addition, the MIC was determined as 0.112 µM (≈ 0.25 µg/mL) with Acinetobacter baumannii; 0.112 µM (≈ 0.25 µg/mL) in assay [23]; 0.225 µM (≈ 0.499 µg/mL) in assay [24]; 0.112 µM (≈ 0.25 µg/mL) in [25]; 0.112 µM (≈ 0.25 µg/mL) in assay [5]; 0.0561 µM (≈ 0.125 µg/mL) in assay [26]. Also, the MIC in assay [27] stood at 0.112 µM (≈ 0.25 µg/mL).

The values above are taken from DBAASP.
